Test results published in patent publication US12383632B2, “Doxorubicin containing nanoplexes and uses thereof” (University of Maryland, Baltimore, priority 2019, dated 2025).

Key:
[1] = tested on: MDA-MB-435; assay: In vivo tumor experiments, tumor size; set-up: species or system mice; settings: low dose 2.2 μg/injection, versus untreated controls
Description: MDA-MB-435 cells (4×10^6 cells per injection) were subcutaneously injected bilaterally into each mouse. After 4 days, when the subcutaneous tumors were about 45 mm3, the mice were separated into groups of 6 mice to determine the efficacy of treatments. The groups were as follows: untreated, nanoplex alone, low dose doxorubicin (2.2 μg/injection), high dose doxorubicin (4.4 μg/injection, low dose doxorubicin nanoplex (2.2 μg/injection), high dose doxorubicin nanoplex (4.4 μg/injection). The mice were given five intravenous injections of the various treatments. Nanoplexes were administered every 2 to 3 days (Monday, Wednesday, Friday). Tumor size was assessed with calipers before each injection and 2 days after the last injection; the size was calculated by formula ½×d1×d22, where d2 is the smaller of the two measurements. Mice were weighed before each injection with tumor weight subtracted to obtain the final weight.

[2] = tested on: Ki67; assay: Immunofluorescence of Ki67 in tumor sections; assay type: in vivo, mice
Description: Quantification of tumor cells staining positive for Ki67 with different treatment groups is shown, expressed as the percentage of Ki67 positive cells. The data represent the mean+SD of four HPF images (60×) for each treatment. **, p<0.01, ***, p<0.001. N=˜50 cells/image.
After the tumors were fixed and a heat-mediated antigen retrieval step was performed, the tumors were permeabilized (0.1% Triton X-100) for 10 min and then blocked with 5% BSA in 0.1% PBS-Tween for 2 h. […] Nuclear DNA was labeled with DAPI.

## COc1cccc2c1C(=O)c1c(O)c3c(c(O)c1C2=O)C[C@@](O)(C(=O)CO)C[C@@H]3O[C@H]1C[C@H](N)[C@H](O)[C@H](C)O1 [free doxorubicin, doxorubicin]
[1]
  effect on growth / size of tumors (words): does not reduce the size of tumors
[1]; listed as doxorubicin
  effect on growth / size of tumors (words): no effect
[2]; high dose, 4.4 μg doxorubicin/injection
  tumor cells stained positive for Ki67: about 57%
[2]; low dose, 2.2 μg doxorubicin/injection
  tumor cells stained positive for Ki67: 80%
